Measured values as given in ChEMBL document CHEMBL3352801, “Synthesis and lipid-lowering evaluation of 3-methyl-1H-purine-2,6-dione derivatives as potent and orally available anti-obesity agents” (Eur J Med Chem, 2014).
Active and inactive are the calls of the source. No cut-off for these calls is given here.

What was measured:
3T3-L1 = assay: Inhibition of triglyceride accumulation in mouse 3T3L1 cells at 10 uM after 24 hrs; type: functional
Mus musculus [1] = assay: Antiobesity activity in diet-induced obese C57Bl/6 mouse assessed as increase in HDL level compound dosed po for 4 weeks with high-fat diet; type: functional, organism-based
Mus musculus [2] = assay: Antiobesity activity in diet-induced obese C57Bl/6 mouse assessed as reduction in FFA level compound dosed po for 4 weeks with high-fat diet; type: functional, organism-based
Mus musculus [3] = assay: Decrease in insulin resistance in diet-induced obese C57Bl/6 mouse assessed as induction of insulin secretion at 50 mg/kg/day, po for 4 weeks by insulin tolerance test; type: functional, organism-based
Mus musculus [4] = assay: Increase in glucose tolerance in diet-induced obese C57Bl/6 mouse at 20 mg/kg/day, po for 4 weeks by oral glucose tolerance test; type: functional, organism-based
Mus musculus [5] = assay: Increase in glucose tolerance in po dosed diet-induced obese C57Bl/6 mouse by oral glucose tolerance test; type: functional, organism-based
Mus musculus [6] = assay: Decrease in insulin resistance in po dosed diet-induced obese C57Bl/6 mouse assessed as induction of insulin secretion by insulin tolerance test; type: functional, organism-based
Mus musculus [7] = assay: Decrease in insulin resistance in diet-induced obese C57Bl/6 mouse assessed as induction of insulin secretion at 20 mg/kg/day, po for 4 weeks by insulin tolerance test; type: functional, organism-based
Mus musculus [8] = assay: Antiobesity activity in diet-induced obese C57Bl/6 mouse assessed as reduction in LDL level compound dosed po for 4 weeks with high-fat diet; type: functional, organism-based
Mus musculus [9] = assay: Antiobesity activity in diet-induced obese C57Bl/6 mouse assessed as reduction in fat accumulation in liver at 20 to 50 mg/kg/day, po for 4 weeks administered with high-fat diet by Oil Red O staining-based histological method; type: functional, organism-based
Mus musculus [10] = assay: Antiobesity activity in diet-induced obese C57Bl/6 mouse assessed as change in insulin level compound dosed po for 4 weeks with high-fat diet; type: functional, organism-based
Mus musculus [11] = assay: Increase in glucose tolerance in diet-induced obese C57Bl/6 mouse at 50 mg/kg/day, po for 4 weeks by oral glucose tolerance test; type: functional, organism-based
Mus musculus [12] = assay: Antiobesity activity in diet-induced obese C57Bl/6 mouse assessed as alteration of adipose tissue morphology at 20 to 50 mg/kg/day, po for 4 weeks administered with high-fat diet by Oil Red O staining-based histological method; type: functional, organism-based
Mus musculus [13] = assay: Antiobesity activity in diet-induced obese C57Bl/6 mouse assessed as reduction in fasting blood glucose compound dosed po for 4 weeks with high-fat diet; type: functional, organism-based
Mus musculus [14] = assay: Antiobesity activity in diet-induced obese C57Bl/6 mouse assessed as reduction in lipid droplets in liver at 50 mg/kg/day, po for 4 weeks administered with high-fat diet by Oil Red O staining-based histological method; type: functional, organism-based
Mus musculus [15] = assay: Antiobesity activity in diet-induced obese C57Bl/6 mouse assessed as reduction in size of fat cells at 20 mg/kg/day, po for 4 weeks administered with high-fat diet by Oil Red O staining-based histological method; type: functional, organism-based
Mus musculus [16] = assay: Decrease in insulin resistance in diet-induced obese C57Bl/6 mouse assessed as induction of insulin secretion at 20 mg/kg, po as single dose by insulin tolerance test; type: functional, organism-based; parameters: dose 20 mg/kg
Mus musculus [17] = assay: Antiobesity activity in diet-induced obese C57Bl/6 mouse assessed as reduction in triglyceride level compound dosed po for 4 weeks with high-fat diet; type: functional, organism-based
Mus musculus [18] = assay: Antiobesity activity in diet-induced obese C57Bl/6 mouse assessed as reduction in fat accumulation in liver at 50 mg/kg/day, po for 4 weeks administered with high-fat diet by Oil Red O staining-based histological method; type: functional, organism-based
Mus musculus [19] = assay: Antiobesity activity in diet-induced obese C57Bl/6 mouse assessed as reduction in HOMA-IR value compound dosed po for 4 weeks with high-fat diet; type: functional, organism-based
Mus musculus [20] = assay: Increase in glucose tolerance in diet-induced obese C57Bl/6 mouse at 20 mg/kg, po as single dose by oral glucose tolerance test; type: functional, organism-based; parameters: dose 20 mg/kg
Mus musculus [21] = assay: Antiobesity activity in diet-induced obese C57Bl/6 mouse assessed as normal liver morphology and histology at 50 mg/kg/day, po for 4 weeks administered with high-fat diet by Oil Red O staining-based histological method; type: functional, organism-based

## CCOC(=O)CCCn1c(=O)c2c(nc(-c3ccc(OCCN(C)c4ccccn4)cc3)n2COC(=O)C(C)(C)C)n(C)c1=O
3T3-L1
  inhibition: inactive

## COc1ccc(Cn2c(=O)c3[nH]c(-c4ccc(OCCN(C)c5ccccn5)cc4)nc3n(C)c2=O)cc1
3T3-L1
  inhibition: inactive

## CC(C)Cn1c(-c2ccc(OCCN(C)c3ccccn3)cc2)nc2c1c(=O)n(Cc1ccccc1C#N)c(=O)n2C
3T3-L1
  inhibition: inactive

## CCn1c(-c2ccc(OCCN(C)c3ccccn3)cc2)nc2c1c(=O)n(Cc1ccc(F)cc1)c(=O)n2C
3T3-L1
  inhibition: inactive

## CCCCn1c(-c2ccc(OCCN(C)c3ccccn3)cc2)nc2c1c(=O)n(Cc1ccccc1C#N)c(=O)n2C
3T3-L1
  inhibition: Active

## C=CCn1c(=O)c2[nH]c(-c3ccc(OCCN(C)c4ccccn4)cc3)nc2n(C)c1=O
3T3-L1
  inhibition: inactive

## CN(CCOc1ccc(-c2nc3c(c(=O)n(Cc4ccccc4C#N)c(=O)n3C)n2CCO)cc1)c1ccccn1
3T3-L1
  inhibition: Active

## CN(CCOc1ccc(-c2nc3c([nH]2)c(=O)n(CC(=O)O)c(=O)n3C)cc1)c1ccccn1
3T3-L1
  inhibition: inactive

## CCn1c(=O)c2c(nc(-c3ccc(OCCN(C)c4ccccn4)cc3)n2CC)n(C)c1=O
3T3-L1
  inhibition: inactive

## CCCn1c(=O)c2c(nc(-c3ccc(OCCN(C)c4ccccn4)cc3)n2CCC)n(C)c1=O
3T3-L1
  inhibition: inactive

## CCCCCn1c(-c2ccc(OCCN(C)c3ccccn3)cc2)nc2c1c(=O)n(Cc1ccccc1C#N)c(=O)n2C
3T3-L1
  inhibition: inactive

## CCOC(=O)Cn1c(=O)c2c(nc(-c3ccc(OCCN(C)c4ccccn4)cc3)n2COC(=O)C(C)(C)C)n(C)c1=O
3T3-L1
  inhibition: inactive

## CCn1c(-c2ccc(OCCN(C)c3ccccn3)cc2)nc2c1c(=O)n(Cc1ccccc1C#N)c(=O)n2C
Mus musculus [1]
  Activity: Dose-dependent effect
Mus musculus [2]
  Activity: Dose-dependent effect
Mus musculus [3]
  Activity: Active
Mus musculus [4]
  Activity: Active
Mus musculus [5]
  Activity: Dose-dependent effect
Mus musculus [6]
  Activity: Dose-dependent effect
Mus musculus [7]
  Activity: Active
Mus musculus [8]
  Activity: Dose-dependent effect
Mus musculus [9]
  Activity: Active
Mus musculus [10]
  Activity: Dose-dependent effect
Mus musculus [11]
  Activity: Active
Mus musculus [12]
  Activity: Active
Mus musculus [13]
  Activity: Dose-dependent effect
Mus musculus [14]
  Activity: Active
Mus musculus [15]
  Activity: Active
Mus musculus [16]
  Activity: Active
Mus musculus [17]
  Activity: Dose-dependent effect
Mus musculus [18]
  Activity: Active
Mus musculus [19]
  Activity: Dose-dependent effect
Mus musculus [20]
  Activity: Active
Mus musculus [21]
  Activity: Active

## CN(CCOc1ccc(-c2nc3c([nH]2)c(=O)n(CCCC(=O)O)c(=O)n3C)cc1)c1ccccn1
3T3-L1
  inhibition: inactive

## CN(CCOc1ccc(-c2nc3c(c(=O)[nH]c(=O)n3C)n2COC(=O)C(C)(C)C)cc1)c1ccccn1
3T3-L1
  inhibition: Active
